Values of other authors, collected in patent US20040202714A1, “Oral pharmaceutical composition” (Daiichi Suntory Pharma Co., Ltd., priority 1999, published 2004).

Experiments:
[1] = system: penicillin-resistant pneumococci (PRSP)
[2] = system: bacterial strains from dental infectious diseases; conditions: increasingly resistant strains from dental infectious diseases
genus Bacteroides = conditions: anaerobic bacteria such as the genus Bacteroides
[3] = system: methicillin-sensitive Staphylococcus aureus (MSSA)
Porphyromonas gingivalis = conditions: pathogenic bacteria of periodontis
Haemophilus influenzae = conditions: gram-negative bacteria such as Haemophilus influenzae

C[C@@H](O)[C@H]1C(=O)N2C(C(=O)O)=C([C@H]3CCCO3)S[C@H]12 [Compound 1, sodium (+)-(5R, 6S)-6-[(R)-1-hydroxyethyl]-7-oxo-3-[(R)-2-tetrahydrofuryl]4-thia-1-azabicyclo [3.2.0] hept-2-ene-2-carboxylate 5/2 hydrate]
antibacterial activity [1]: potent antibacterial activity
antibacterial activity [2]: potent antibacterial activity
antibacterial activity (Streptococcus pneumoniae): potent antibacterial activity
antibacterial spectrum (genus Bacteroides): wide antibacterial spectrum
antibacterial activity (enterococci): potent antibacterial activity
antibacterial activity [3]: potent antibacterial activity
antibacterial activity (oral staphylococci): potent antibacterial activity
antibacterial activity (Porphyromonas gingivalis): potent antibacterial activity
antibacterial activity (Streptococcus pyrogenes): potent antibacterial activity
antibacterial spectrum (Haemophilus influenzae): wide antibacterial spectrum
